US11299501B2 (BRISTOL-MYERS SQUIBB COMPANY, priority 2017, dated 2022)
pIC50: −log10 of the molar value.

Assays:
Type in all cases: cell-based
human TLR8 = target: T1, human TLR8 (Homo sapiens, UniProt Q9NR97); experiment: TLR8 inhibition reporter assay (HEK-Blue SEAP); conditions: cells overexpressing human TLR8, SEAP reporter, stimulated with R848 15.9 μM, 22 hour incubation
T1 construct: host or cells: HEK-Blue cells
T1 sequence (Q9NR97 27-1041): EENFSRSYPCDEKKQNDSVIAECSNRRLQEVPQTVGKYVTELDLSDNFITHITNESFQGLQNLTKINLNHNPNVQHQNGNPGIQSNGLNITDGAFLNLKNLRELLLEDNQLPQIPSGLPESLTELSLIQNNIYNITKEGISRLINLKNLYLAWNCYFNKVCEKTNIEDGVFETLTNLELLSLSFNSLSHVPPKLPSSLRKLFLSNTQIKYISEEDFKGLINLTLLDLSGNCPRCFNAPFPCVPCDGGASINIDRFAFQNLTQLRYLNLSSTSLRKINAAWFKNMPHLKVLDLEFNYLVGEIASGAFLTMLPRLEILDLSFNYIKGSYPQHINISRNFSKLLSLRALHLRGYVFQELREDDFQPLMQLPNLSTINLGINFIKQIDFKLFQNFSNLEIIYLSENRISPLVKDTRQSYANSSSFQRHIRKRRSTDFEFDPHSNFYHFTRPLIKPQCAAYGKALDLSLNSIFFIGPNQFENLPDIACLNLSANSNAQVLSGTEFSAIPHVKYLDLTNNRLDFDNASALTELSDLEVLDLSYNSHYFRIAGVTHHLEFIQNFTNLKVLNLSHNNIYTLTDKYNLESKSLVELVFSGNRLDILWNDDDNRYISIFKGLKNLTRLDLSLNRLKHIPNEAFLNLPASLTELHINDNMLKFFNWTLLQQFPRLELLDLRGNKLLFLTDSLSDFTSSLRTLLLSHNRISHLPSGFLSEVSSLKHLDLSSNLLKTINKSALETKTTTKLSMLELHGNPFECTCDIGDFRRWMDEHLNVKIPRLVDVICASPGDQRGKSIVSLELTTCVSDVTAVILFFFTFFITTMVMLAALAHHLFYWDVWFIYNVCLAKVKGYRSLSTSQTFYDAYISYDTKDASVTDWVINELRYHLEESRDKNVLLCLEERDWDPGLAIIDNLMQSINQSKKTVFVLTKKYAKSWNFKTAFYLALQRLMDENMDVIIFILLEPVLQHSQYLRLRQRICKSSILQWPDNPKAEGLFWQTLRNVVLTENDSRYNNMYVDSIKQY
Method: (§1) TLR7/8/9 Inhibition Reporter Assays
(§2) […] (Invivogen) overexpressing human TLR7, TLR8 or TLR9 receptors were used for screening inhibitors of these receptors using an inducible SEAP (secreted embryonic alkaline phosphatase) reporter gene under the control of the IFN-β minimal promoter fused to five NF-κB and AP-1-binding sites. Briefly, cells are seeded into Greiner 384 well plates (15000 cells per well for TLR7, 20,000 for TLR8 and 25,000 for TLR9) and then treated with test compounds in DMSO to yield a final dose response concentration range of 0.05 nM-50 μM. After a 30 minute compound pre-treatment at room temperature, the cells are then stimulated with a TLR7 ligand (gardiquimod at a final concentration of 7.5 μM). TLR8 ligand (R848 at a final concentration of 15.9 μM) or TLR9 ligand (ODN2006 at a final concentration of 5 nM) to activate NF-κB and AP-1 which induce the production of SEAP. After a 22 hour incubation at 37° C., 5% CO2, SEAP levels are determined with the addition of HEK-Blue™ Detection reagent (Invivogen), a cell culture medium that allows for detection of SEAP, according to manufacturer's specifications. The percent inhibition is determined as the % reduction in the HEK-Blue signal present in wells treated with agonist plus DMSO alone compared to wells treated with a known inhibitor.

human TLR7 = target: T2, human TLR7 (Homo sapiens, UniProt Q9NYK1); experiment: TLR7 inhibition reporter assay (HEK-Blue SEAP); conditions: cells overexpressing human TLR7, SEAP reporter, stimulated with gardiquimod 7.5 μM, 22 hour incubation
T2 construct: host or cells: HEK-Blue cells
T2 sequence (Q9NYK1 27-1049): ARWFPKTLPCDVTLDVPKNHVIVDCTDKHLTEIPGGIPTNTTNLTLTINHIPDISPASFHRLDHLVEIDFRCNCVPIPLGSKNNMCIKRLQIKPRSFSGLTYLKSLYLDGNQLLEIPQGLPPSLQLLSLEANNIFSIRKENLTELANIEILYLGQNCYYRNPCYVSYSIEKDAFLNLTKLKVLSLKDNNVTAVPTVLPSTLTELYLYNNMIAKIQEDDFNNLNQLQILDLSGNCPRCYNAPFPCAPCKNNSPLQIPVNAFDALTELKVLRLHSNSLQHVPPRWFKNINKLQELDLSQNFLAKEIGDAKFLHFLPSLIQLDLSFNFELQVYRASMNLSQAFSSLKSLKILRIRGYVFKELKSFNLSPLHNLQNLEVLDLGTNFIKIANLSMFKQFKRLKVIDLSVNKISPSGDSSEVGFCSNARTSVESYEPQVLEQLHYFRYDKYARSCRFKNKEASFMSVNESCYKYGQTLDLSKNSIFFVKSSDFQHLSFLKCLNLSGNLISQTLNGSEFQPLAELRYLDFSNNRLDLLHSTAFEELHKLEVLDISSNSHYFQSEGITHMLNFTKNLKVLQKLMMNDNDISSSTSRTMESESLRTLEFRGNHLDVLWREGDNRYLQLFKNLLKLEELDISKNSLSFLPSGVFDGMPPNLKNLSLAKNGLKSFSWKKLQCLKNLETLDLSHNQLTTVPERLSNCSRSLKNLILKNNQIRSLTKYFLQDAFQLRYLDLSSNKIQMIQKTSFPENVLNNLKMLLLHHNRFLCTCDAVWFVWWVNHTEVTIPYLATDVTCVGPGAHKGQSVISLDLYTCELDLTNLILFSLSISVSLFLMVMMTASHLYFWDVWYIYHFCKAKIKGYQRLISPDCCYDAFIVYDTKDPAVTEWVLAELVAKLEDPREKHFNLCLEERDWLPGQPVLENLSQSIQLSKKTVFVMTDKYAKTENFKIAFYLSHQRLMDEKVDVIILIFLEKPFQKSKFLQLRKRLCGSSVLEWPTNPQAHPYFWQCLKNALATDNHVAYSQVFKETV
Method: as §1, §2

human TLR9 = target: T3, human TLR9 (Homo sapiens, UniProt Q9NR96); experiment: TLR9 inhibition reporter assay (HEK-Blue SEAP); conditions: cells overexpressing human TLR9, SEAP reporter, stimulated with ODN2006 5 nM, 22 hour incubation
T3 construct: host or cells: HEK-Blue cells
T3 sequence (Q9NR96 26-1032): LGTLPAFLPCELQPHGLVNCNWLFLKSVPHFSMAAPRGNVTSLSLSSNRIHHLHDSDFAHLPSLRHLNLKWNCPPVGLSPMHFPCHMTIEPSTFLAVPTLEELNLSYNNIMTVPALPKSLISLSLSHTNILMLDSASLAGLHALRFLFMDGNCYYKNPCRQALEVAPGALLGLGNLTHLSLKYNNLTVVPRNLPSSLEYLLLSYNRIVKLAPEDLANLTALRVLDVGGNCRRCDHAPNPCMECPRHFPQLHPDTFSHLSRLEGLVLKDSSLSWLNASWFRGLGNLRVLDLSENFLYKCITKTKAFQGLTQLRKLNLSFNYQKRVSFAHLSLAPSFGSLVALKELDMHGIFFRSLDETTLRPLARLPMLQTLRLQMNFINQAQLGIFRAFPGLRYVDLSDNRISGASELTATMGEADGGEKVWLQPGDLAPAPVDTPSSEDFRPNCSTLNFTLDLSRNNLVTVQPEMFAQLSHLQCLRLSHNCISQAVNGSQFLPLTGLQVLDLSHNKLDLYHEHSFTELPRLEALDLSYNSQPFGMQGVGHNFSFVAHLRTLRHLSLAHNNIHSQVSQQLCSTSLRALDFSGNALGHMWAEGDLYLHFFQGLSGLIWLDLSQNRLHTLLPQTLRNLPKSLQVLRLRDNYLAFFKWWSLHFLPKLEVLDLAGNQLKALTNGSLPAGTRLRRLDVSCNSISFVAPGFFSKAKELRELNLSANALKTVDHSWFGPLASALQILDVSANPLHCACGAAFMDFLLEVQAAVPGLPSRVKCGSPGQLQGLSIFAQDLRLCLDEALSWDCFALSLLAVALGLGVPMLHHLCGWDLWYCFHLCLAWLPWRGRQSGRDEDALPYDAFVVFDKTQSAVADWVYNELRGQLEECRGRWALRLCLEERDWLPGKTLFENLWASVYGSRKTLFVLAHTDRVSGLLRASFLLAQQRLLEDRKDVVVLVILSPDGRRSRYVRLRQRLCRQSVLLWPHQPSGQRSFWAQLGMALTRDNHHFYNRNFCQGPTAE
Method: as §1, §2

Row | pIC50 (human TLR8) | pIC50 (human TLR7) | pIC50 (human TLR9) | Compound
1 | > 7.00 | > 7.00 | 6.00 to 7.00 | CCc1c(-c2ccc(OC)c(OC)c2)[nH]c2cnc(C3CCN(C4CCN(C(C)C)CC4)CC3)nc12 [Example 26, 6-(3,4-dimethoxyphenyl)-7-ethyl-2-(1′-isopropyl-[1,4′-bipiperidin]-4-yl)-5H-pyrrolo[3,2-d]pyrimidine]
2 | > 7.00 | > 7.00 | 4.30 to 6.00 | Cc1c(-c2[nH]c3cnc(C4CCN(CC(C)(C)O)CC4)nc3c2C(C)C)cn2ncnc2c1C [Example 27, 1-(4-(6-(7,8-dimethyl-[1,2,4]triazolo[1,5-a]pyridin-6-yl)-7-isopropyl-5H-pyrrolo[3,2-d]pyrimidin-2-yl)piperidin-1-yl)-2-methylpropan-2-ol]
3 | > 7.00 | > 7.00 | 4.30 to 6.00 | Cc1c(-c2[nH]c3cnc(C4CCN(C(=O)CN(C)C)CC4)nc3c2C(C)C)cn2ncnc2c1C [Example 28, 1-(4-(6-(7,8-dimethyl-[1,2,4]triazolo[1,5-a]pyridin-6-yl)-7-isopropyl-5H-pyrrolo[3,2-d]pyrimidin-2-yl)piperidin-1-yl)-2-(dimethylamino)ethan-1-one]
4 | > 7.00 | > 7.00 | 4.30 to 6.00 | Cc1cc(-c2[nH]c3cnc(C4CCN(CC(=O)N(C)C)CC4)nc3c2C(C)C)cn2ncnc12 [Example 29, 2-(4-(7-isopropyl-6-(8-methyl-[1,2,4]triazolo[1,5-a]pyridin-6-yl)-5H-pyrrolo[3,2-d]pyrimidin-2-yl)piperidin-1-yl)-N,N-dimethylacetantide]
5 | > 7.00 | > 7.00 | < 4.30 | CNC(=O)CN1CCC(c2ncc3[nH]c(-c4cc(C)c5ncnn5c4)c(C(C)C)c3n2)CC1 [Example 30, 2-(4-(7-isopropyl-6-(8-methyl-[1,2,4]triazolo[1,5-a]pyridin-6-yl)-5H-pyrrolo[3,2-d]pyrimidin-2-yl)piperidin-1-yl)-N-tnethylacetamide]
6 | > 7.00 | > 7.00 | 4.30 to 6.00 | COc1cc(-c2[nH]c3cnc(C4CCN(CC(=O)N(C)C)CC4)nc3c2C(C)C)cn2ncnc12 [Example 31, 2-(4-(7-isopropyl-6-(8-methoxy-[1,2,4]triazolo[1,5-a]pyridin-6-yl)-5H-pyrrolo[3,2-d]pyrimidin-2-yl)piperidin-1-yl)-N,N-dimethylacetamide]
7 | > 7.00 | > 7.00 | 4.30 to 6.00 | Cc1cc(-c2[nH]c3cnc(C4CCN(CC(=O)N(C)C)CC4)nc3c2C(C)C)cn(C)c1=O [Example 32, 2-(4-(6-(1,5-dimethyl-6-oxo-1,6-dihydropyridin-3-yl)-7-isopropyl-5H-pyrrolo[3,2-d]pyrimidin-2-yl)piperidin-1-yl)-N,N-dimethylacetainide]
8 | 6.00 to 7.00 | > 7.00 | 4.30 to 6.00 | Cc1cc(-c2[nH]c3cnc(C4CCN(C(=O)CN(C)C)CC4)nc3c2C(C)C)cn(C)c1=O [Example 33, 5-(2-(1-(dimethylglycyl)piperidin-4-yl)-7-isopropyl-5H-pyrrolo[3,2-d]pyrimidin-6-yl)-1,3-dimethylpyridin-2(1H)-one]
9 | > 7.00 | > 7.00 | 4.30 to 6.00 | Cc1cc(-c2[nH]c3cnc(C4CCN(C)CC4)nc3c2C(C)C)cn(C)c1=O [Example 34, 5-(7-isopropyl-2-(1-methylpiperidin-4-yl)-5H-pyrrolo[3,2-d]pyrimidin-6-yl)-1,3-dimethylpyridin-2(1H)-one]
10 | > 7.00 | > 7.00 | < 4.30 | CNC(=O)CN1CCC(c2ncc3[nH]c(-c4cc(OC)c5ncnn5c4)c(C(C)C)c3n2)CC1 [Example 35, 2-(4-(7-isopropyl-6-(8-methoxy-[1,2,4]triazolo[1,5-a]pyridin-6-yl)-5H-pyrrolo[3,2-d]pyritnidin-2-yl)piperidin-1-yl)-N-methylacetamide]
11 | 6.00 to 7.00 | 4.30 to 6.00 | 4.30 to 6.00 | CCc1c(-c2ccc(OC)c(OC)c2)[nH]c2cnc(-c3nnc(C[C@H]4CCCCN4)o3)nc12 [Example 36, (R)-2-(6-(3,4-dimethoxyphenyl)-7-ethyl-5H-pyrrolo[3,2-d]pyrhnidin-2-yl)-5-(piperidin-2-ylmethyl)-1,3,4-oxadiazole]
